Where two headings read alike, the source gives them in different places.
Experiments:
in vitro [1] = conditions: mouse, liver microsomes, pH 7.47
in vitro [2] = conditions: dog, microsomes, pH 7.47
[3] = human, microsomes, 1 µM, pH 7.47
in vitro [4] = conditions: rat, microsomes, pH 7.47
[5] = monkey, microsomes, 1 µM, pH 7.47
P-gp = assay: MDCK cell permeability test; conditions: dog, MDCK
[6] = MDCK cell permeability test; conditions: dog, MDCK, 90 min
MDCK cells = assay: MDCK cell permeability test; conditions: for Efllux ratio: Papp(B→A)/Papp(A→B)
[7] = rat, microsomes, 1 µM, pH 7.47
tubulin = assay: Tubulin polymerization experiment (Cytoskeleton Tubulin Polymerization Assay Kit); type: biochemical
Procedure: The tubulin polymerization experiment is carried out according to the specifications of Tubulin Polymerization Assay Kit of Cytoskeleton Corporation.

in vitro [8] = conditions: monkey, microsomes, pH 7.47
in vitro [9] = conditions: human, microsomes, pH 7.47

half-life at 1 µM (in vitro [1]): 55.3 min
microsomal CLint at 1 µM (in vitro [1]): 25 µL/min/mg
half-life at 1 µM (in vitro [2]): 24.7 min
microsomal CLint at 1 µM (in vitro [2]): 56 µL/min/mg
Remainder ([3]; 0 h): 100.00%
Remainder ([3]; 10 min): 78.76%
Remainder ([3]; 0.5 h): 56.18%
Remainder ([3]; 1.5 h): 23.87%
half-life at 1 µM (in vitro [4]): 56.8 min
microsomal CLint at 1 µM (in vitro [4]): 24.4 µL/min/mg
Remainder ([5]; 0 h): 100.00%
Remainder ([5]; 10 min): 52.00%
Remainder ([5]; 0.5 h): 20.40%
Remainder ([5]; 1.5 h): 4.76%
efflux ratio at 90 min (P-gp): 1.2
Papp A→B at 90 min ([6]; Apparent permeability coefficient A→B, 1st line of the compound (condition not given)): 0.6 ×10⁻⁶ cm/s
Papp A→B at 90 min ([6]; Apparent permeability coefficient A→B, 2nd line of the compound (condition not given)): 16 ×10⁻⁶ cm/s
Papp A→B at 90 min, 10 µM ([6]; Apparent permeability coefficient A→B, 3rd line of the compound (condition not given)): 18 ×10⁻⁶ cm/s
Papp B→A at 90 min ([6]; Apparent permeability coefficient B→A, 1st line of the compound (condition not given)): 0.8 ×10⁻⁶ cm/s
Papp B→A at 90 min ([6]; Apparent permeability coefficient B→A, 2nd line of the compound (condition not given)): 18.9 ×10⁻⁶ cm/s
Papp B→A at 90 min, 10 µM ([6]; Apparent permeability coefficient B→A, 3rd line of the compound (condition not given)): 19.6 ×10⁻⁶ cm/s
recovery at 90 min ([6]; Recovery rate A→B, 2nd line of the compound (condition not given)): 69.4%
recovery at 90 min, 10 µM ([6]; Recovery rate A→B, 3rd line of the compound (condition not given)): 62.3%
recovery at 90 min ([6]; Recovery rate A→B, 1st line of the compound (condition not given; method: without / with 10 μM cyclosporine A)): 93.8%
recovery at 90 min ([6]; Recovery rate B→A, 1st line of the compound (condition not given)): 102%
recovery at 90 min ([6]; Recovery rate B→A, 2nd line of the compound (condition not given)): 85.4%
recovery at 90 min, 10 µM ([6]; Recovery rate B→A, 3rd line of the compound (condition not given)): 84.6%
PGP substrate judgment (MDCK cells; MDCK cells): is not the PGP substrate and No
Permeability Judgment (MDCK cells; MDCK cells): moderate permeability
Efllux ratio (MDCK cells; 2nd line of the compound (condition not given)): 1.2
Efllux ratio (MDCK cells; 3rd line of the compound (condition not given)): 1.1
Remainder ([7]; 0 h): 100.00%
Remainder ([7]; 10 min): 87.70%
Remainder ([7]; 0.5 h): 68.13%
Remainder ([7]; 1.5 h): 33.19%
IC50 (tubulin; read-out: tubulin polymerization inhibiting IC50): 4.62 µM
half-life at 1 µM (in vitro [8]): 21.6 min
microsomal CLint at 1 µM (in vitro [8]): 64.2 µL/min/mg
half-life at 1 µM (in vitro [9]): 44.7 min
microsomal CLint at 1 µM (in vitro [9]): 31 µL/min/mg
Compound: CCOc1cccc(Nc2nn(C)c3c2Cc2cc(OCC)c(OCC(N)=O)cc2-3)c1 [LL-01]
inhibition of tubulin polymerization (in words) (tubulin; FIGS. 1 and 2): able to inhibit tubulin polymerization

— patent US10059674B2, “Design, synthesis, and biological evaluation of 1-methyl-1, 4-dihyrdoindeno[1,2-C]pyrazole analogues as potential anticaner agents targeting tubulin colchicine binding site” (ACT PHARMA CO., LTD., priority 2016, dated 2018)
